# Assay results from PubChem BioAssay AID248 (DTP/NCI, 2004).
# “And” between values parts separate entries of the source, which are not always exact repeats. Identical values can stand only once. Toxic doses and inconclusive results are not listed.
# Tested on: L1210 leukemia ip in BDF1 mice, survival T/C
# Assay: NCI In Vivo Anticancer Drug Screen. Data for tumor model L1210 Leukemia (intraperitoneal) in B6D2F1 (BDF1) mice
# Conditions: endpoint: mean survival time, higher = longer survival
# Method in brief: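 Read-out is survival time, reported as the treated-group measurement over the vehicle-control measurement.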
# [1] = dose: 100.0 mg/kg/injection, schedule: Q01DX009 (ip), vehicle: Klucel (hydroxypropylcellulose) (HPC)
# [2] = dose: 200.0 mg/kg/injection, schedule: Q01DX009 (ip), vehicle: Klucel (hydroxypropylcellulose) (HPC)
# [3] = dose: 400.0 mg/kg/injection, schedule: Q01DX009 (ip), vehicle: Klucel (hydroxypropylcellulose) (HPC)
# [4] = dose: 100.0 mg/kg/injection, schedule: Q01DX001 (ip), vehicle: saline
# [5] = dose: 200.0 mg/kg/injection, schedule: Q01DX001 (ip), vehicle: saline
# [6] = dose: 400.0 mg/kg/injection, schedule: Q01DX001 (ip), vehicle: saline
smiles,measurement,setting,value
Clc1ncnc2nc[nH]c12,T/C,"dose: 7.5 mg/kg/injection, schedule: Q01DX010 (ip), vehicle: saline",93 % of control and 96 % of control
same,T/C,"dose: 9.37 mg/kg/injection, schedule: Q03HX008 (ip), vehicle: other",103 % of control
same,T/C,"dose: 9.37 mg/kg/injection, schedule: Q03HX016 (ip), vehicle: other",102 % of control
same,T/C,"dose: 9.37 mg/kg/injection, schedule: Q03HX024 (ip), vehicle: other",112 % of control
same,T/C,"dose: 12.5 mg/kg/injection, schedule: Q03HX016 (ip), vehicle: other",105 % of control
same,T/C,"dose: 12.5 mg/kg/injection, schedule: Q03HX024 (ip), vehicle: other",104 % of control
same,T/C,"dose: 15.0 mg/kg/injection, schedule: Q01DX010 (ip), vehicle: saline",93 % of control and 105 % of control
same,T/C,"dose: 18.75 mg/kg/injection, schedule: Q03HX008 (ip), vehicle: other",111 % of control
same,T/C,"dose: 18.75 mg/kg/injection, schedule: Q03HX016 (ip), vehicle: other",113 % of control
same,T/C,"dose: 18.75 mg/kg/injection, schedule: Q03HX024 (ip), vehicle: other",110 % of control
same,T/C,"dose: 25.0 mg/kg/injection, schedule: Q01DX006 (iv), vehicle: other",108 % of control
same,T/C,"dose: 25.0 mg/kg/injection, schedule: Q03HX016 (ip), vehicle: other",112 % of control
same,T/C,"dose: 25.0 mg/kg/injection, schedule: Q03HX024 (ip), vehicle: other",114 % of control
same,T/C,"dose: 30.0 mg/kg/injection, schedule: Q01DX010 (ip), vehicle: saline",104 % of control and 107 % of control
same,T/C,"dose: 37.5 mg/kg/injection, schedule: Q03HX024 (ip), vehicle: other",160 % of control
same,T/C,"dose: 50.0 mg/kg/injection, schedule: Q01DX001 (iv), vehicle: other",98 % of control
same,T/C,"dose: 50.0 mg/kg/injection, schedule: Q01DX005 (ip), vehicle: other",103 % of control
same,T/C,"dose: 50.0 mg/kg/injection, schedule: Q01DX006 (iv), vehicle: other",108 % of control
same,T/C,"dose: 50.0 mg/kg/injection, schedule: Q01DX009 (ip), vehicle: other",106 % of control and 109 % of control
same,T/C,"dose: 50.0 mg/kg/injection, schedule: Q01DX009 (oral), vehicle: other",112 % of control
same,T/C,"dose: 50.0 mg/kg/injection, schedule: Q01DX009 (sc), vehicle: other",114 % of control
same,T/C,"dose: 50.0 mg/kg/injection, schedule: Q01DX Z (ip), vehicle: carboxymethylcellulose (CMC)",110 % of control
same,T/C,"dose: 60.0 mg/kg/injection, schedule: Q01DX010 (ip), vehicle: saline",101 % of control and 103 % of control
same,T/C,"dose: 75.0 mg/kg/injection, schedule: Q01DX001 (sc), vehicle: other",106 % of control
same,T/C,"dose: 75.0 mg/kg/injection, schedule: Q03HX016 (ip), vehicle: other",163 % of control
same,T/C,"dose: 75.0 mg/kg/injection, schedule: Q03HX024 (ip), vehicle: other",189 % of control
same,T/C,"dose: 75.0 mg/kg/injection, schedule: Q04DX003 (ip), vehicle: other",106 % of control
same,T/C,"dose: 75.0 mg/kg/injection, schedule: Q08DX002 (ip), vehicle: other",103 % of control
same,T/C,"dose: 100.0 mg/kg/injection, schedule: Q01DX001 (iv), vehicle: other",101 % of control
same,T/C,"dose: 100.0 mg/kg/injection, schedule: Q01DX001 (oral), vehicle: other",103 % of control
same,T/C,"dose: 100.0 mg/kg/injection, schedule: Q01DX005 (ip), vehicle: other",118 % of control
same,T/C,"dose: 100.0 mg/kg/injection, schedule: Q01DX006 (iv), vehicle: other",113 % of control
same,T/C,"dose: 100.0 mg/kg/injection, schedule: Q01DX009 (ip), vehicle: other",121 % of control
same,T/C,"dose: 100.0 mg/kg/injection, schedule: Q01DX Z (ip), vehicle: carboxymethylcellulose (CMC)",156 % of control
same,T/C,"dose: 100.0 mg/kg/injection, schedule: Q03HX016 (ip), vehicle: other",163 % of control
same,T/C,"dose: 100.0 mg/kg/injection, schedule: Q03HX024 (ip), vehicle: other",150 % of control
same,T/C,"dose: 100.0 mg/kg/injection, schedule: Q04DX003 (ip), vehicle: other",115 % of control
same,T/C,"dose: 100.0 mg/kg/injection, schedule: Q08DX002 (ip), vehicle: other",101 % of control
same,T/C,"dose: 146.0 mg/kg/injection, schedule: Q01DX015 (ip), vehicle: gum acacia",152 % of control
same,T/C,"dose: 150.0 mg/kg/injection, schedule: Q01DX001 (sc), vehicle: other",113 % of control
same,T/C,"dose: 150.0 mg/kg/injection, schedule: Q04DX003 (ip), vehicle: other",114 % of control
same,T/C,"dose: 150.0 mg/kg/injection, schedule: Q08DX002 (ip), vehicle: other",104 % of control
same,T/C,"dose: 200.0 mg/kg/injection, schedule: Q01DX001 (iv), vehicle: other",106 % of control
same,T/C,"dose: 200.0 mg/kg/injection, schedule: Q01DX001 (oral), vehicle: other",110 % of control
same,T/C,"dose: 200.0 mg/kg/injection, schedule: Q01DX009 (oral), vehicle: other",152 % of control and 160 % of control
same,T/C,"dose: 200.0 mg/kg/injection, schedule: Q04DX003 (ip), vehicle: other",109 % of control
same,T/C,"dose: 200.0 mg/kg/injection, schedule: Q08DX002 (ip), vehicle: other",105 % of control
same,T/C,"dose: 218.0 mg/kg/injection, schedule: Q01DX015 (ip), vehicle: gum acacia",150 % of control
same,T/C,"dose: 300.0 mg/kg/injection, schedule: Q01DX001 (sc), vehicle: other",113 % of control
same,T/C,"dose: 300.0 mg/kg/injection, schedule: Q04DX003 (ip), vehicle: other",113 % of control
same,T/C,"dose: 300.0 mg/kg/injection, schedule: Q08DX002 (ip), vehicle: other",105 % of control
same,T/C,"dose: 327.0 mg/kg/injection, schedule: Q01DX015 (ip), vehicle: gum acacia",152 % of control
same,T/C,"dose: 360.0 mg/kg/injection, schedule: Q01DX015 (ip), vehicle: gum acacia",110 % of control
same,T/C,"dose: 400.0 mg/kg/injection, schedule: Q01DX009 (oral), vehicle: other",158 % of control
same,T/C,"dose: 400.0 mg/kg/injection, schedule: Q01DX015 (ip), vehicle: other",105 % of control
same,T/C,"dose: 400.0 mg/kg/injection, schedule: Q04DX003 (ip), vehicle: other",115 % of control
same,T/C,"dose: 400.0 mg/kg/injection, schedule: Q08DX002 (ip), vehicle: other",103 % of control
same,T/C,"dose: 490.0 mg/kg/injection, schedule: Q01DX015 (ip), vehicle: gum acacia",90 % of control
same,T/C,"dose: 800.0 mg/kg/injection, schedule: Q04DX003 (ip), vehicle: other",114 % of control
CCOc1ccc(-n2c(O)c(N=Nc3ccccc3)c(=O)n(-c3ccccc3)c2=S)cc1,T/C,"dose: 50.0 mg/kg/injection, schedule: Q04DX003 (ip), vehicle: acetone",94 % of control
same,T/C,"dose: 100.0 mg/kg/injection, schedule: Q04DX003 (ip), vehicle: acetone",89 % of control
same,T/C,"dose: 200.0 mg/kg/injection, schedule: Q04DX003 (ip), vehicle: acetone",96 % of control
Nc1ccccc1/C=C/c1ccncc1,T/C,"dose: 50.0 mg/kg/injection, schedule: Q01DX009 (ip), vehicle: Klucel (hydroxypropylcellulose) (HPC)",100 % of control
same,T/C,[1],92 % of control
same,T/C,[2],101 % of control
same,T/C,[3],100 % of control
O=C1C(c2ccc(O)cc2)C2C=CC(C2)N1O (centres undefined),T/C,[4],95 % of control
same,T/C,[5],103 % of control
same,T/C,[6],95 % of control
CCCCCCCCCC(=O)Nc1ccc(C)cc1C,T/C,"dose: 100.0 mg/kg/injection, schedule: Q04DX002 (ip), vehicle: Klucel (hydroxypropylcellulose) (HPC)",97 % of control
same,T/C,"dose: 200.0 mg/kg/injection, schedule: Q04DX002 (ip), vehicle: Klucel (hydroxypropylcellulose) (HPC)",101 % of control
same,T/C,"dose: 400.0 mg/kg/injection, schedule: Q04DX002 (ip), vehicle: Klucel (hydroxypropylcellulose) (HPC)",90 % of control
C#CCCOC(=O)Nc1ccccc1,T/C,[1],96 % of control
same,T/C,[2],96 % of control
same,T/C,[3],102 % of control
Oc1ccc(O)c2c1C1C=CC2CC1,T/C,[4],96 % of control
same,T/C,[5],105 % of control
same,T/C,[6],98 % of control
Oc1ccccc1COCc1ccccc1O,T/C,"dose: 100.0 mg/kg/injection, schedule: Q01DX001 (sc), vehicle: olive oil, sesame oil, peanut oil",104 % of control
same,T/C,"dose: 100.0 mg/kg/injection, schedule: Q04DX003 (sc), vehicle: olive oil, sesame oil, peanut oil",102 % of control
same,T/C,"dose: 200.0 mg/kg/injection, schedule: Q01DX001 (sc), vehicle: olive oil, sesame oil, peanut oil",98 % of control
same,T/C,"dose: 200.0 mg/kg/injection, schedule: Q04DX003 (sc), vehicle: olive oil, sesame oil, peanut oil",108 % of control
same,T/C,"dose: 400.0 mg/kg/injection, schedule: Q01DX001 (sc), vehicle: olive oil, sesame oil, peanut oil",100 % of control
same,T/C,"dose: 400.0 mg/kg/injection, schedule: Q04DX003 (sc), vehicle: olive oil, sesame oil, peanut oil",108 % of control
